Literature values as cited in patent US10125164B2, “Process for preparing D-arginyl-2,6-dimethyl-L-tyrosyl-L-lysyl-L-phenylalaninamide” (FLAMMA S.P.A., priority 2014, dated 2018).
Where a SMILES comes first, the peptide text is derived from it. [ ]: non-standard residue; d: D form. Dmt = Cc1cc(O)cc(C)c1C[C@H](N)C(=O)O

Legend:
[1] = test system: mouse pancreatic islets; conditions: 3 mg/kg i.p. qd for 2 weeks
[2] = test system: unilateral ureteral obstruction; conditions: rats, intraperitoneal 1 and 3 mg/kg, 1 day prior to obstruction and every day thereafter for 14 days
[3] = target: mu-opioid receptor (Homo sapiens, UniProt P35372)
Sequence of mu-opioid receptor (P35372 whole entry): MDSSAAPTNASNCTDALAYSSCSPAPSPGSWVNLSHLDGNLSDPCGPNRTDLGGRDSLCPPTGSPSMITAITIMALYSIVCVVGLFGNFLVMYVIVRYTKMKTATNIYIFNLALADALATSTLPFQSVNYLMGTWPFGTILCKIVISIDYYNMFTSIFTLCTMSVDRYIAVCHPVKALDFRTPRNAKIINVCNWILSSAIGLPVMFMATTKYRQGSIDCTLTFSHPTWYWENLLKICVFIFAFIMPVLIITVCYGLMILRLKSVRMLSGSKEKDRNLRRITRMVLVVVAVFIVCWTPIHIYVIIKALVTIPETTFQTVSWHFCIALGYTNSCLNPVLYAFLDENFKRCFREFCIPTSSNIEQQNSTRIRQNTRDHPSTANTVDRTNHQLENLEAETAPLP

[4] = test system: G93A mouse model of amyotrophic lateral sclerosis; conditions: 5 mg/kg/day i.p. starting at 30 days of age
[5] = test system: SH-SY5Y neuronal cell line; conditions: compound <1 nM
[6] = test system: inner mitochondrial membrane
[7] = test system: N2A neuronal cell line; conditions: compound <1 nM

Cc1cc(O)cc(C)c1C[C@H](NC(=O)[C@H](N)CCCNC(=N)N)C(=O)N[C@@H](CCCCN)C(=O)N[C@@H](Cc1ccccc1)C(N)=O [D-Arginyl-2,6-dimethyl-L-tyrosyl-L-lysyl-L-phenylalaninamide] (H-[dR][Dmt]KF-NH2)
apoptosis in pancreatic islets caused by streptozotocin [1]: prevented | insulin reduction in pancreatic islets caused by streptozotocin [1]: prevented | interstitial fibrosis [2]: significantly decreased | macrophage infiltration [2]: significantly decreased | tubular damage [2]: significantly decreased | mu-opioid receptor agonist activity [3]: does not have mu-opioid receptor agonist activity | disease onset [4]: significant delay | intracellular reactive oxygen species [5]: significantly reduced | mitochondrial potential [5]: increased | tBHP-induced apoptosis [5]: prevented | antioxidant activity [6]: showed antioxidant activity | intracellular reactive oxygen species [7]: significantly reduced | mitochondrial potential [7]: increased | tBHP-induced apoptosis [7]: prevented
